# Patent US20060035938A1, “2-Pyridone derivatives as inhibitors of neutrophile elastase” (priority 2002, published 2006)
# Biological target: T1, Human Neutrophil Elastase (HNE) (Homo sapiens, UniProt P08246)
# T1 construct: Human Neutrophil Elastase (HNE) purified from serum; purchased Calbiochem 324681; host or cells: purified from human serum (so in the source); not recombinant
# T1 sequence (P08246 30-267): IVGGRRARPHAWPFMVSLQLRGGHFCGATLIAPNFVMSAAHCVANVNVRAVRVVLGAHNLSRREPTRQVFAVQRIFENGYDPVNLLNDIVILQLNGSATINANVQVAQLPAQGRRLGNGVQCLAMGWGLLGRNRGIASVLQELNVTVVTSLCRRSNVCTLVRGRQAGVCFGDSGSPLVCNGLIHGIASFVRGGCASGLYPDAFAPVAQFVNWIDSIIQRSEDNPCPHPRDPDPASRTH
# Assay: Human Neutrophil Elastase Quenched-FRET Assay
# Type: biochemical
# Conditions: read-out: Inhibition of Human Neutrophil Elastase IC50
# Protocol: Human Neutrophil Elastase Quenched-FRET Assay
# The assay uses Human Neutrophil Elastase (HNE) purified from serum (Calbiochem art. 324681; Ref. Baugh, R J. et al., 1976, Biochemistry. 15, 836-841). HNB was stored in 50 mM NaOAc, 200 mM NaCl, pH 5.5 with added 30% glycerol at −20° C. The protease substrate used was Elastase Substrate V Fluorogenic, MeOSuc-AAPV-AMC (Calbiochem art. 324740; Ref. Castillo, M. J. et al., 1979, Anal. Biochem. 99, 53-64). The substrate was stored in DMSO at −20° C. The assay additions were as follows: Test compounds and controls were added to black 96-well flat-bottom plates (Greiner 655076), 1 μL in 100% DMSO, followed by 30 μL HNE in assay buffer with 0.01% TritonX-100. The assay buffer constitution was: 100 mM Tris (pH 7.5) and 500 mM NaCl. The enzyme and the compounds were incubated at room temperature for 15 minutes. Then 30 μl substrate in assay buffer was added The assay was stopped after 30 minutes incubation at room temperature by adding 60 μl stop solution (140 mM acetic acid, 200 mM sodium monochloroacetate, 60 mM sodium acetate, pH 4.3). Fluorescence was measured on a Wallac 1420 Victor 2 instrument at settings: Exitation 380 nm, Emission 460 nm. IC50 values were determined using xlfit curve fitting using model 205.
row,IC50 [µM],Structure (SMILES)
1,0.353,"COc1ccc(CNC(=O)c2ccc(C)n(-c3cccc(Br)c3)c2=O)cc1 [1-(3-Bromophenyl)-N-(4-methoxybenzyl)-6-methyl-2-oxo-1,2-dihydropyridine-3-carboxamide]"
2,0.701,"COc1cccc(CNC(=O)c2ccc(C)n(-c3cccc(C(F)(F)F)c3)c2=O)c1OC [N-(2,3-Dimethoxybenzyl)-6-methyl-2-oxo-1-[3-(trifluoromethyl)phenyl]-1,2-dihydropyridine-3-carboxamide]"
3,2.03,"O=C(NCc1ccc2c(c1)CCO2)c1c[nH]c(=O)n(-c2cccc(C(F)(F)F)c2)c1=O [N-(2,3-Dihydro-1-benzofuran-5-ylmethyl)-2,4-dioxo-3-[3-(trifluoromethyl)phenyl]-1,2,3,4-tetrahydropyrimidine-5-carboxamide]"
4,0.318,"Cc1cc(CNC(=O)c2ccc(C)n(-c3cccc(C(F)(F)F)c3)c2=O)no1 [6-Methyl-N-[(5-methylisoxazol-3-yl)methyl]-2-oxo-1-[3-(trifluoromethyl)phenyl]-1,2-dihydropyridine-3-carboxamide]"
